Among the data in US9452980B2, “Substituted benzamides” (Hoffmann-La Roche Inc., priority 2009, dated 2016) are Ki values, retold here.

Where a name gives a salt, the structure may show the parent alone. Read-outs that look alike come from different tables or passages of the source.

The target in experiment [1] is mouse TAAR1 (Mus musculus (Mouse), UniProt Q923Y8). Put plainly: Radioligand binding assay on mouse TAAR1. To be noted: read-out: Ki (μM) mouse. The method, boiled down:
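Displacement of the tritiated oxazol-2-ylamine radioligand was measured by filtration and scintillation counting after 1 h incubation at 4 °C. Test concentrations ran 10 pM–10 μM in duplicate, with 10 μM cold ligand giving nonspecific binding. The receptor source was membranes of a stable mouse TAAR1 HEK293 line.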

The target of experiment [2] is rat TAAR1 (Rattus norvegicus (Rat), UniProt Q923Y9). Put plainly: Radioligand binding assay on rat TAAR1. Particulars: rat TAAR1, HEK-293 membranes, second value of cell mouse/rat; read-out: Ki (μM) rat. A digest of the protocol:
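Membranes from HEK293 cells stably expressing rat TAAR1, with Kd checked per batch by saturation. Competition with ³H-(S)-4-[(ethyl-phenyl-amino)-methyl]-4,5-dihydro-oxazol-2-ylamine, compounds 10 pM–10 μM in duplicate, 1 hr at 4 °C. Filtration then scintillation counting; nonspecific binding defined with 10 μM unlabeled ligand.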

Where [3] appears, read: mouse TAAR1, HEK-293 membranes, first value of cell mouse/rat.

What is called Ki is a dissociation constant, usually derived from enzyme kinetics or from competition with a known ligand.

rat TAAR1, sequence (Q923Y9 whole entry): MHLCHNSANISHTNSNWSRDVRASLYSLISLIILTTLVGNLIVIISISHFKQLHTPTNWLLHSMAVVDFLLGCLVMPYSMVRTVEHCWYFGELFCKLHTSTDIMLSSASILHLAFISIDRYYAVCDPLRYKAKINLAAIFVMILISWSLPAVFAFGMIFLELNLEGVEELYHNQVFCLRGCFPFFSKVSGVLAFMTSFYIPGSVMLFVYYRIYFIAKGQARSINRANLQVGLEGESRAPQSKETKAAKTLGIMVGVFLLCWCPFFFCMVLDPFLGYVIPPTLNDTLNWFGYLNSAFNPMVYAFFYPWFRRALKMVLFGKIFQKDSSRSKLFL
mouse TAAR1, sequence (Q923Y8 whole entry): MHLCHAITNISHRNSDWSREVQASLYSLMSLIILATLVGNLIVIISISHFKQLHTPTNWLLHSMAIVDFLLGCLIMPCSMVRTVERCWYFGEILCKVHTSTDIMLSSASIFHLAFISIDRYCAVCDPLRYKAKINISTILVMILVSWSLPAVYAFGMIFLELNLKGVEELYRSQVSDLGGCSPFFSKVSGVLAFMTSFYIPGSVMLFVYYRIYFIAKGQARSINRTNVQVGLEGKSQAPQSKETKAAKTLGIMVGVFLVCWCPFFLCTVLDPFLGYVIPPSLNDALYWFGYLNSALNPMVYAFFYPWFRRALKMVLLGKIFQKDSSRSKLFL

As for `O=C(Nc1ccc(C2CCCNC2)cc1)c1ccc(Cl)nc1` (racemic) [Example 74, (RS)-6-Chloro-N-(4-piperidin-3-yl-phenyl)-nicotinamide hydrochloride], the inhibition constant (Ki) is 0.0049 µM in experiment [1] (setting [3]) and 0.0672 µM in experiment [2].

As to `O=C(Nc1ccc(C2CCNC2)cc1)c1ncc(F)cc1F` (racemic) [Example 75, (RS)-3,5-Difluoro-pyridine-2-carboxylic acid (4-pyrrolidin-3-yl-phenyl)-amide hydrochloride], the inhibition constant (Ki) turned out to be 0.0255 µM in experiment [1] (setting [3]) and 1.48 µM in experiment [2].

As to `O=C(Nc1ccc(C2CCNC2)cc1)c1nc2ccccc2[nH]1` (racemic) [Example 76, (RS)-1H-Benzoimidazole-2-carboxylic acid (4-pyrrolidin-3-yl-phenyl)-amide hydrochloride], the Ki is 0.136 µM in experiment [1] (setting [3]) and 0.296 µM in experiment [2].

`O=C(Nc1ccc(C2CCNC2)cc1)c1ccc(Cl)cc1F` (racemic) [Example 77, (RS)-4-Chloro-2-fluoro-N-(4-pyrrolidin-3-yl-phenyl)-benzamide hydrochloride]: the values for the inhibition constant (Ki) in experiment [1] (setting [3]) and in experiment [2] were 0.0017 µM and 0.0238 µM, respectively.

Regarding `O=C(Nc1ccc(C2CCCNC2)cc1)c1ccc(Cl)cn1` (racemic) [Example 78, (RS)-5-Chloro-pyridine-2-carboxylic acid (4-piperidin-3-yl-phenyl)-amide hydrochloride], the figures for the Ki in experiment [1] (setting [3]) and in experiment [2] were 0.0067 µM and 0.0466 µM, respectively.

Regarding `O=C(Nc1ccc(C2CCCNC2)cc1)Nc1ccc(Cl)nc1` (racemic) [Example 79, (RS)-1-(6-Chloro-pyridin-3-yl)-3-(4-piperidin-3-yl-phenyl)-urea hydrochloride], the inhibition constant (Ki) in experiment [1] (setting [3]) came to 0.0075 µM; in experiment [2], 0.0924 µM.

Take `O=C(Nc1ccc(C2CCNC2)cc1)Nc1cccc2cccnc12` (racemic) [Example 81, (RS)-1-(4-Pyrrolidin-3-yl-phenyl)-3-quinolin-8-yl-urea]: the results for the inhibitory constant (Ki) in experiment [1] (setting [3]) and in experiment [2] were 0.0227 µM and 0.0124 µM, respectively.

In the case of `O=C(Nc1ccc(C2CCNC2)cc1)c1ncccc1F` (racemic) [Example 82, (RS)-3-Fluoro-pyridine-2-carboxylic acid (4-pyrrolidin-3-yl-phenyl)-amide hydrochloride], the Ki in experiment [1] (setting [3]) was 0.713 µM; in experiment [2], 1.77 µM.

As for `O=C(Nc1ccc(C2CCCNC2)cc1)Nc1ccc(Cl)cn1` (racemic) [Example 83, (RS)-1-(5-Chloro-pyridin-2-yl)-3-(4-piperidin-3-yl-phenyl)-urea hydrochloride], the Ki in experiment [1] (setting [3]) was found to be 0.002 µM; in experiment [2], 0.012 µM.

`O=C(Nc1ccc(C2CCNC2)cc1)c1ccc2ccccc2n1` (racemic) [Example 84, (RS)-Quinoline-2-carboxylic acid (4-pyrrolidin-3-yl-phenyl)-amide hydrochloride]: the Ki in experiment [1] (setting [3]) was 0.008 µM; in experiment [2], 0.0381 µM.

Consider `O=C(Nc1ccc(C2CCNC2)cc1)c1cc(Cl)ccn1` (racemic) [Example 86, (RS)-4-Chloro-pyridine-2-carboxylic acid (4-pyrrolidin-3-yl-phenyl)-amide hydrochloride], for which the inhibition constant Ki in experiment [1] (setting [3]) was determined as 0.0051 µM; in experiment [2] it was 0.116 µM.

With `O=C(Nc1ccc(C2CCNC2)cc1)c1ccc(Br)cn1` (racemic) [Example 87, (RS)-5-Bromo-pyridine-2-carboxylic acid (4-pyrrolidin-3-yl-phenyl)-amide hydrochloride], the inhibitory constant (Ki) worked out at 0.0051 µM in experiment [1] (setting [3]) and 0.017 µM in experiment [2].

`COc1ccc(C(=O)Nc2ccc(C3CCNC3)cc2)c(F)c1` (racemic) [Example 88, (RS)-2-Fluoro-4-methoxy-N-(4-pyrrolidin-3-yl-phenyl)-benzamide hydrochloride]: the Ki in experiment [1] (setting [3]) was 0.0052 µM; in experiment [2], 0.102 µM.

As for `O=C(Nc1ccc(C2CCNC2)cc1)c1ccc(OCC(F)(F)F)nc1` (racemic) [Example 89, (RS)—N-(4-Pyrrolidin-3-yl-phenyl)-6-(2,2,2-trifluoro-ethoxy)-nicotinamide hydrochloride], the Ki in experiment [1] (setting [3]) worked out at 0.0059 µM; in experiment [2], 0.006 µM.

Regarding `COc1cc(C(=O)Nc2ccc(C3CCNC3)cc2)nc2ccccc12` (racemic) [Example 90, (RS)-4-Methoxy-quinoline-2-carboxylic acid (4-pyrrolidin-3-yl-phenyl)-amide hydrochloride], the inhibition constant (Ki) in experiment [1] (setting [3]) stood at 0.0192 µM; in experiment [2], 0.0101 µM.

Take `COc1ccc2nc(C(=O)Nc3ccc(C4CCNC4)cc3)ccc2c1` (racemic) [Example 91, (RS)-6-Methoxy-quinoline-2-carboxylic acid (4-pyrrolidin-3-yl-phenyl)-amide hydrochloride]: the inhibition constant Ki in experiment [1] (setting [3]) came to 0.0039 µM; in experiment [2] it was 0.0223 µM.

For `O=C(Nc1ccc(C2CCCNC2)cc1)c1cccc(Cl)c1` (racemic) [Example 92, (RS)-3-Chloro-N-(4-piperidin-3-yl-phenyl)-benzamide hydrochloride], the inhibition constant Ki in experiment [1] (setting [3]) and in experiment [2] was 0.0238 µM each time.

On to `O=C(Nc1ccc(C2CCNC2)cc1)c1nccc2ccsc12` (racemic) [Example 93, (RS)-Thieno[2,3-c]pyridine-7-carboxylic acid (4-pyrrolidin-3-yl-phenyl)-amide hydrochloride], for which the inhibition constant Ki in experiment [1] (setting [3]) came to 0.04 µM; in experiment [2] it was 0.173 µM.

`COc1ccc(C(=O)Nc2ccc(C3CCNC3)cc2)nc1` (racemic) [Example 94, (RS)-5-Methoxy-pyridine-2-carboxylic acid (4-pyrrolidin-3-yl-phenyl)-amide hydrochloride]: the figures for the inhibition constant (Ki) in experiment [1] and in experiment [2] were 0.0601 µM and 0.379 µM, respectively.

For `COc1ccc(C(=O)Nc2ccc(C3CCNC3)cc2)c(OC)n1` (racemic) [Example 95, (RS)-2,6-Dimethoxy-N-(4-pyrrolidin-3-yl-phenyl)-nicotinamide], the Ki in experiment [1] (setting [3]) amounted to 0.0385 µM; in experiment [2], 0.322 µM.

As to `O=C(Nc1ccc(C2CCCNC2)cc1)c1ccc(Cl)c(Cl)c1` (racemic) [Example 96, (RS)-3,4-Dichloro-N-(4-piperidin-3-yl-phenyl)-benzamide hydrochloride], the figures for the inhibitory constant (Ki) in experiment [1] (setting [3]) and in experiment [2] were 0.0016 µM and 0.0067 µM, respectively.

For `CCOc1ccc(C(=O)Nc2ccc(C3CCCNC3)cc2)cc1` (racemic) [Example 97, (RS)-4-Ethoxy-N-(4-piperidin-3-yl-phenyl)-benzamide hydrochloride], the inhibition constant Ki is 0.0038 µM in experiment [1] (setting [3]) and 0.0193 µM in experiment [2].

For the molecule `O=C(Nc1ccc(C2CCCNC2)cc1)c1ccc(C(F)(F)F)cc1` (racemic) [Example 98, (RS)—N-(4-Piperidin-3-yl-phenyl)-4-trifluoromethyl-benzamide hydrochloride], the Ki in experiment [1] (setting [3]) came out at 0.0041 µM; in experiment [2], 0.0114 µM.

`O=C(Nc1ccc(C2CCCNC2)cc1)c1ccc(Cl)cc1Cl` (racemic) [Example 99, (RS)-2,4-Dichloro-N-(4-piperidin-3-yl-phenyl)-benzamide hydrochloride]: the Ki in experiment [1] (setting [3]) amounted to 0.013 µM; in experiment [2], 0.0501 µM.

Regarding `O=C(Nc1ccc(C2CCCNC2)cc1)c1ccc(Cl)cc1F` (racemic) [Example 100, (RS)-4-Chloro-2-fluoro-N-(4-piperidin-3-yl-phenyl)-benzamide hydrochloride], the results for the Ki in experiment [1] (setting [3]) and in experiment [2] were 0.0036 µM and 0.0308 µM, respectively.

Regarding `O=C(CCc1ccc(Cl)cc1)Nc1ccc(C2CCCNC2)cc1` (racemic) [Example 101, (RS)-3-(4-Chloro-phenyl)-N-(4-piperidin-3-yl-phenyl)-propionamide hydrochloride], the Ki came to 0.002 µM in experiment [1] (setting [3]) and 0.0263 µM in experiment [2].
